Test: gradient 5% acetonitrile 3 min, to 50% in 2 min, to 85% in 15 min, held 3 min, 100 µL/min
Conditions: column: Zorbax Extend-C18 2.1 x 50 mm; eluents: water / acetonitrile, 0.1% formic acid
Procedure, shortened: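 Pure standards were analyzed in mixtures of ~100 molecules using HPLC coupled to a quadrupole time-of-flight mass spectrometer, in both positive and negative ionization mode. Separation used a Zorbax Extend-C18 column (2.1 × 50 mm, 1.8 μm) at 100 μL/min, with water and acetonitrile each containing 0.1% formic acid. Dead and dwell volumes were 40 μL and 900 μL, and data were collected over 3 months. Retention time was read from computationally picked adduct peaks, each inspected manually.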

Row | SMILES | RP-LC retention time
1 | CCCCN(C)Cc1nc(-c2ccc(N3CCOCC3)nc2)no1 | 594 s
2 | CCC(C)NC(=O)c1c(C)sc2ccn(C)c(=O)c12 (stereo not drawn) | 654 s
3 | O=C(NC1c2ccccc2-c2ccccc21)c1cccc([N+](=O)[O-])c1 | 961 s
4 | CCNc1ncnc2sc3c(c12)CCN(Cc1ccncc1)C3 | 659 s
5 | CC(NC(=O)CCc1c(-c2ccc(Cl)cc2)nc2ccccn12)c1ccccc1 (stereo not drawn) | 700 s
6 | CCc1nc2cc(-c3noc(-c4ccccc4F)n3)ccc2o1 | 1140 s
7 | COc1ccc(-n2nc(SCC(=O)Nc3ccc(F)c(F)c3)ccc2=O)cc1 | 772 s
8 | CCCN1C(=O)COc2ccc(-c3noc(/C=C/c4ccccc4OC)n3)cc21 | 1270 s
9 | COC(=O)c1cccc(NC(=O)N2CCSc3ncccc32)c1 | 739 s
10 | O=C(Cc1csc(NC(=O)c2cnccn2)n1)Nc1nc2ccccc2s1 | 734 s
11 | Nc1nc2c(cnn2CCc2ccccc2)c2nc(-c3ccco3)nn12 | 880 s
12 | Cc1ccc(OCC(O)CN2CCN(CC(O)COC(C)C)CC2)c(C(C)(C)C)c1 (stereo not drawn) | 607 s
13 | Cc1nccn1CC(=O)N1C[C@@H](C)[C@H](c2nc(-c3ccncc3)no2)C1 | 569 s
14 | Cc1cc2nn(CC(=O)NCc3ccco3)c(=O)n2c(Nc2ccc(C)c(F)c2)n1 | 923 s
15 | CCn1ccc2ccn(CC(=O)NCc3ccc4c(c3)OCO4)c(=O)c21 | 726 s
16 | COc1cc(NC(=O)c2ccc(-c3ccc(Cl)cc3)o2)cc(OC)c1 | 1170 s
17 | O=c1c2cc(-c3ccc(F)cc3)nn2cnn1Cc1nc(-c2ccc3c(c2)OCO3)no1 | 1220 s
18 | Cc1cc(C)n(-c2ccnc(NCc3ccc(Br)cc3)n2)n1 | 946 s
19 | O=C(NCC(F)(F)F)C1CN(C(=O)COc2ccccc2F)C1 | 666 s
20 | O=S(=O)(NCc1nc(-c2ccc(NS(=O)(=O)c3cccs3)cc2)no1)c1ccccc1 | 883 s
21 | C/C=C/c1cc2c(c(=O)o1)C(=O)[C@@H](O)[C@H](C)O2 | 695 s

The next lines start with the values.

Row | RP-LC retention time | SMILES
22 | 922 s | O=C(CN1C(=O)CCCc2cc(S(=O)(=O)N3CCCCC3)ccc21)N1CCc2ccccc2C1
23 | 596 s | Cn1cccc1C(=O)C(=O)N1CCN(Cc2ccc3c(c2)OCO3)CC1
24 | 795 s | Cc1nnc(N2CCCC(C(=O)N(C)Cc3ccccc3)C2)c2nn(-c3ccc(Cl)cc3)c(C)c12 (stereo not drawn)
25 | 631 s | Cc1nn(-c2ccccc2)c(C)c1S(=O)(=O)N1CCC(C(=O)N2CCN(C)CC2)CC1
26 | 713 s | Cn1nccc1-c1csc(S(=O)(=O)NC2CC2)c1
27 | 976 s | Cc1cccc(Oc2nccn3c(=O)n(CC(=O)NC(C)CCc4ccccc4)nc23)c1C (stereo not drawn)
28 | 761 s | CN1CCN(CCSC2Cc3cc(Cl)ccc3Sc3ccccc32)CC1 (stereo not drawn)
29 | 836 s | CCC(=O)N(C1CCOCC1)C1CCN(S(=O)(=O)c2cccc(C)c2)CC1
30 | 576 s | COc1ccc(C(=O)N2CCN(C(=O)c3ccco3)CC2)nn1
31 | 969 s | Cc1ccc(C)c(NC(=O)CN2C(=O)C(C(=O)N3CCCC3)Sc3ccccc32)c1 (stereo not drawn)
32 | 638 s | Cc1ccc(CN2CCC(CNC(=O)Cn3c(=O)c(C)nc4cc(C)c(C)cc43)C2)cc1 (stereo not drawn)
33 | 842 s | Cc1ccc(-c2cc3c4nn(CC(=O)N5CCCC5)c(=O)n4ccn3n2)cc1C
34 | 653 s | Cc1nn(CC(=O)NCCN(C)C2CCCCC2)c(=O)c2c(C)n(-c3ccccc3)nc12
35 | 839 s | CCCS(=O)(=O)N1CCCN(C2=NS(=O)(=O)C(c3ccccc3)=C2C)CC1
36 | 916 s | Cc1ccc(NC(=O)N2CCCCC2)cc1[N+](=O)[O-]
37 | 1010 s | Cc1ccc(CNC(=O)CCC2CCCN(S(=O)(=O)c3ccccc3C)C2)cc1 (stereo not drawn)
38 | 784 s | O=C(c1cccc(F)c1)N1CCN(S(=O)(=O)c2cc3c4c(c2)CCC(=O)N4CCC3)CC1
39 | 1180 s | COc1ccc(NC(=O)Cn2nc(N3CCSCC3)c3ccccc3c2=O)cc1
40 | 685 s | CNC(=O)C1CCCN(c2nc3ncn(CC(=O)Nc4ccc(Cl)cc4)c(=O)c3s2)C1 (stereo not drawn)
41 | 728 s | CCn1cc(C(=O)N[C@@H](Cc2ccccc2)C(=O)O)c(=O)c2cc3c(cc21)OCO3
42 | 670 s | COc1ccccc1CC(=O)Nc1ccc2c(c1)CCC(=O)N2
43 | 867 s | Cc1cccc(Nc2c(-c3ccc(N4CCOCC4)cc3)nc3cnccn23)c1C

— the METLIN SMRT retention time set (Domingo-Almenara et al. 2019)
